The subject of series [1] is D-aminoacylase derived from Streptomyces thermonitrificans. The series is described as follows: Effect of inhibitors against D-aminoacylase. It counts as biochemical. The following applies: for Effect on enzyme activity (in words): SH reagents, 1 mM. The method, then: (§1) The measurement of the enzyme activity was proceeded according to the TNBS method (Tokuyama, S., Hatano, K., and Takahashi, T., Biosci.Biotech.Biochem. 58:24(1994)). That is, the sample containing the amino acid was added to 0.5 ml of solution (C) (0.1 M Na2B4O7) to give a total volume of 1.0 ml. […] of 0.11 M TNBS solution was added with stirring immediately. The absorbance at 420 nm was measured after 5 minutes.
(§2) Various metal salt and various enzyme inhibitors were added to a concentration of 1 mM to the enzyme reaction, and measurement of the enzyme reaction was performed. The enzyme reaction was conducted in 50 mM Tris/HCl (pH 7.5) buffer (total volume of 500 μl). For the metal salt added reaction, 1 mM of each metal salt or EDTA was added to the standard reaction composition solution without the enzyme and was preincubated at 30° C. for 5 minutes, then enzyme was added to react at 30° C. for 60 minutes. For the enzyme inhibitor added reaction, the standard reaction solution without the substrate was preincubated at 5 minutes, then after adding 1 mM of each inhibitor […] the substrate was added, and the enzyme reaction was performed at 30° C. for 100 minutes. The relative activity was calculated taking activity of enzyme actions without addition of inhibitors as 100%.

For series [2] the test system is unchanged. Briefly: Effect of metal salt for D-aminoacylase. It counts as biochemical. The conditions noted are these: for Effect on enzyme activity (in words): 1 mM metal ion or EDTA. The method, then: as §1, §2
For series [3] the following is noted: in vivo; cited from earlier work.
Series [4] deals with D-aminoacylase derived from Streptomyces thermonitrificans. The series is described as follows: Substrate specificity of D-aminoacylase. The class given is biochemical. The following applies: for Catalysis of the reaction with the substrate (in words): N-acetyl amino acid substrates; for Activity / Relative activity: substrate 20 mM; for Activity: 1 mM cobalt chloride, 50 mM Tris/HCl pH 7.5, 30° C., 60 minutes; for Relative activity: activity against N-acetyl-D-methionine taken as 100%. On the procedure:
The activity of the D-aminoacylase of the present invention can be tested by the following procedure. For example, an enzyme solution (100 μl) is mixed and incubated with 50 mM Tris-HCl (pH 7.5) buffer (total volume: 500 μl) containing 20 mM substrate (various N-acetyl-D-amino acids) at 30° C. for 60 minutes. By measuring the amounts of amino acid synthesized by this reaction, enzymatic activities for respective substrates can be compared with each other. Assay for amino acid is performed by the TNBS (trinitrobenzenesulfonic acid) method or the HPLC method.
as §1
D-methionine was measured colorimetrically using L-methionine as a standard, and the amount of enzyme-producing 1 μmol of D-methionine in 1 minute at 30° C. was determined 1 unit.
The substrate specificity of the enzyme of the present invention was compared taking the enzyme activity against N-acetyl-D-methionine as 100%. N-acetyl-D-valine, N-acetyl-D-phenylalanine, N-acetyl-D-leucine, N-acetyl-D-tryptophan, N-acetvl-D-alanine N-acetyl-L-methionine, N-acetyl-L-leucine, and N-acetyl-L-valine was used as the substrate for comparison. The enzyme activity was measured in a standard reaction solution (total volume of 500 μl containing 100 μl of enzyme solution, and 400 μl of 50 mM Tris/HCl (pH 7.5) containing 20 mM of each substrate and 1 mM cobalt chloride at 30° C. for 60 minutes. The substrate specificity for N-acetyls of D-methionine, D-leucine, D-valine, D-tryptophan, D-alanine and D-phenylalanine is depicted in Table 2.

Setting [5] is: 1 mM reagent, 50 mM Tris/HCl pH 7.5, 30° C., 100 minutes.
Setting [6] is: 1 mM reagent, no addition = 100%.
Where [7] appears, read: 1 mM metal salt or EDTA, 50 mM Tris/HCl pH 7.5, 30° C., 60 minutes.
[8] abbreviates: 1 mM metal salt or EDTA, no addition = 100%.

“Also recorded” adds a separate entry of the source.

`O=C(NNc1ccccc1)NNc1ccccc1` [1,5-Diphenylcarbonylhydrazide]: in series [1] (setting [5]), the Activity amounted to 40.5 mU/ml. Further, the Relative activity in series [1] (setting [6]) is recorded as 89%.
For `c1ccc(-c2ccccn2)nc1` [2,2′-Bipyridyl], in that order: 21.9 mU/ml and 49%.
Turning to `O=S(=O)([O-])[O-].O=S(=O)([O-])[O-].O=S(=O)([O-])[O-].[Al+3].[Al+3]` [Al2(SO4)2], the Activity in series [2] (setting [7]) was 25.2 mU/ml. Moreover, the Relative activity in series [2] (setting [8]) worked out at 90%.
Turning to `[Ba+2].[Cl-].[Cl-]` [BaCl2], the Activity in series [2] (setting [7]) is 30.6 mU/ml. Besides, the Relative activity in series [2] (setting [8]) came to 95%.
In the case of `[Ca+2].[Cl-].[Cl-]` [CaCl2], the Activity in series [2] (setting [7]) came out at 31.1 mU/ml. Moreover, in series [2] (setting [8]), the Relative activity is 97%.
Regarding `[Cl][Co][Cl]` [CoCl2, cobalt chloride], the “Effect on enzyme activity (in words)” value in series [2] is “increased”. Moreover, in series [2] (setting [7]), the Activity is on record as 54.4 mU/ml. Further, the Relative activity in series [2] (setting [8]) came to 168%.
Take `[Cl][Cu][Cl]` [CuCl2]: in series [2], the “Effect on enzyme activity (in words)” value was “markedly inhibited”. For the same molecule, in series [2] (setting [7]), the Activity worked out at 1.0 mU/ml. Also, the Relative activity in series [2] (setting [8]) is reported as 3%.
Consider `O=C1CCC(N2C(=O)c3ccccc3C2=O)C(=O)N1` [D(R)-form thalidomide, thalidomide], for which, in series [3], the Teratogenic activity result is “no teratogenic activity”.
For the molecule `O[C@@H](CS)[C@@H](O)CS` [DTT], the Activity in series [1] (setting [5]) turned out to be 34.8 mU/ml. In series [1] (setting [6]), the Relative activity is 76%.
In the case of `O=C(O)CN(CCN(CC(=O)O)CC(=O)O)CC(=O)O` [EDTA], the “Effect on enzyme activity (in words)” value in series [2] was “inhibited”. The Activity in series [2] (setting [7]) is 9.4 mU/ml. For the same molecule, the Relative activity in series [2] (setting [8]) is listed as 29%.
In the case of `[Cl][Fe][Cl]` [FeCl2], in series [2] (setting [7]), the Activity is on record as 20.4 mU/ml. Besides, the Relative activity in series [2] (setting [8]) is given as 63%.
For `[Cl][Fe]([Cl])[Cl]` [FeCl3] the same measures were 22.0 mU/ml and 68%.
`NO` [Hydroxylammonium chloride]: in series [1], the Relative activity amounted to 102%. Besides, the Activity in series [1] (setting [5]) was 46.5 mU/ml.
For the molecule `[Cl-].[K+]` [KCl], the Activity in series [2] (setting [7]) stood at 30.9 mU/ml. Moreover, the Relative activity in series [2] (setting [8]) amounted to 93%.
Regarding `[I-].[K+]` [KI], the Activity in series [1] (setting [5]) stood at 11.3 mU/ml. Also, in series [1] (setting [6]), the Relative activity is listed as 24%.
As to `O=C1CCC(N2C(=O)c3ccccc3C2=O)C(=O)N1` [L(S)-form, thalidomide], the Teratogenic activity entry in series [3] was “strong teratogenicity”.
In the case of `[Cl-].[Cl-].[Mg+2]` [MgCl2], the Activity in series [2] (setting [7]) turned out to be 35.2 mU/ml. The Relative activity in series [2] (setting [8]) stood at 109%.
On to `[Cl][Mn][Cl]` [MnCl2], for which, in series [2] (setting [7]), the Activity is 21.0 mU/ml. Also, the Relative activity in series [2] (setting [8]) is reported as 65%.
`O=C(O)CI` [Monoiodoacetic acid]: the Relative activity in series [1] stood at 84%. Further, the Activity in series [1] (pH 7.5) is 37.9 mU/ml.
As to `CC(=O)N[C@H](C)C(=O)O` [N-Ac-D-Ala, N-acetyl-D-alanine], in series [4], the “Catalysis of the reaction with the substrate (in words)” value (shortened to “Catalysis of the reaction”) is listed as “catalyzes; also recorded: catalytic actions”, the Activity came out at 16.9 mU/ml and the Relative activity is given as 40%.
For the molecule `CC(=O)N[C@H](CC(C)C)C(=O)O` [N-Ac-D-Leu, N-acetyl-D-leucine], in series [4], the “Catalysis of the reaction” value is “catalyzes; also recorded: catalytic actions”, the Activity stood at 8.93 mU/ml and the Relative activity is listed as 21%.
For `CSCC[C@@H](NC(C)=O)C(=O)O` [N-Ac-D-Met, N-acetyl-D-methionine], in series [4], the “Catalysis of the reaction” value is reported as “efficiently catalyzes; also recorded: catalyze especially well”, the Activity is listed as 40.6 mU/ml and the Relative activity is on record as 100%.
Turning to `CC(=O)N[C@H](Cc1ccccc1)C(=O)O` [N-Ac-D-Phe, N-acetyl-D-phenylalanine], in series [4], the “Catalysis of the reaction” value was “efficiently catalyzes; also recorded: catalyze especially well”, the Activity is recorded as 62.2 mU/ml and the Relative activity was determined as 144%.
Take `CC(=O)N[C@H](Cc1c[nH]c2ccccc12)C(=O)O` [N-Ac-D-Trp, N-acetyl-D-tryptophan]: in series [4], the “Catalysis of the reaction” value is “efficiently catalyzes; also recorded: catalyze especially well”, the Activity came out at 48.4 mU/ml and the Relative activity is listed as 105%.
Take `CC(=O)N[C@@H](C(=O)O)C(C)C` [N-Ac-D-Val, N-acetyl-D-valine]: in series [4], the “Catalysis of the reaction” value is listed as “catalyzes; also recorded: catalytic actions”, the Activity came out at 14.7 mU/ml and the Relative activity is given as 40%.
Turning to `CSCC[C@H](NC(C)=O)C(=O)O` [N-Ac-L-Met, N-acetyl-L-methionine], in series [4], the “Catalysis of the reaction” value is reported as “didn't catalyze; also recorded: substantially no catalytic activity”, the Activity came to 0 mU/ml and the Relative activity is given as 0%.
As to `CC(=O)N[C@@H](Cc1ccccc1)C(=O)O` [N-Ac-L-Phe, N-acetyl-L-phenylalanine], in series [4], the “Catalysis of the reaction” value is reported as “didn't catalyze; also recorded: substantially no catalytic activity”, the Activity is 0 mU/ml and the Relative activity is given as 0%.
Turning to `CC(=O)N[C@H](C(=O)O)C(C)C` [N-Ac-L-Val, N-acetyl-L-valine], in series [4], the “Catalysis of the reaction” value is reported as “didn't catalyze; also recorded: substantially no catalytic activity”, the Activity was found to be 0 mU/ml and the Relative activity turned out to be 0%.
For the molecule `CCN1C(=O)C=CC1=O` [N-Ethylmaleimide], the Activity in series [1] (setting [5]) is recorded as 1.3 mU/ml. For the same molecule, the Relative activity in series [1] (setting [6]) came out at 3%. Also, the “Effect on enzyme activity (in words)” value in series [1] was “inhibited”.
Regarding `[Cl-].[Na+]` [NaCl], in series [2], the Relative activity is given as 103%. Moreover, in series [2] (pH 7.5), the Activity is listed as 33.1 mU/ml.
For `[F-].[Na+]` [NaF], the Activity in series [1] (setting [5]) is listed as 45.2 mU/ml. Also, the Relative activity in series [1] (setting [6]) is listed as 99%.
In the case of `[Cl][Ni][Cl]` [NiCl2], the Activity in series [2] (setting [7]) stood at 15.9 mU/ml. Further, the Relative activity in series [2] (setting [8]) was found to be 51%.
With `O=S(=O)(F)Cc1ccccc1` [Phenylmethylsulfonyl fluoride], the Activity in series [1] (setting [5]) is given as 29.5 mU/ml. In addition, the Relative activity in series [1] (setting [6]) is listed as 70%.
Consider `[Cl][Sn][Cl]` [SnCl2], for which, in series [2] (setting [7]), the Activity is 32.8 mU/ml. In series [2] (setting [8]), the Relative activity was found to be 102%.
Consider `[Cl-].[Cl-].[Zn+2]` [ZnCl2], for which, in series [2] (setting [7]), the Activity is recorded as 22.2 mU/ml. For the same molecule, the Relative activity in series [2] (setting [8]) is 68%.
The molecule `O=C(O)c1cc[c]([Hg][Cl])cc1` [p-Chloromercuribenzoic acid] gave an Activity in series [1] (setting [5]) of 2.1 mU/ml. Besides, the Relative activity in series [1] (setting [6]) is reported as 4%. For the same molecule, the “Effect on enzyme activity (in words)” value in series [1] was “inhibited”.

Values taken from patent publication US6902915B2, “Heat-stable D-aminoacylase” (Daicel Chemical Industries, Ltd., priority 2000, dated 2005).
